Measurements taken from BindingDB's records for PubMed 29133594 (University of North Carolina at Chapel Hill).

Tests used:
[1] = target: Mitogen-activated protein kinase 3 (Homo sapiens, UniProt P27361); test: Inhibition of ERK1 (unknown origin)
[2] = target: RAC-alpha serine/threonine-protein kinase (Homo sapiens, UniProt P31749); test: Inhibition of AKT1 (unknown origin)
[3] = target: T1, Aurora kinase A (Homo sapiens, UniProt O14965); test: Inhibition of AURKA (unknown origin)
T1 sequence (O14965 whole entry): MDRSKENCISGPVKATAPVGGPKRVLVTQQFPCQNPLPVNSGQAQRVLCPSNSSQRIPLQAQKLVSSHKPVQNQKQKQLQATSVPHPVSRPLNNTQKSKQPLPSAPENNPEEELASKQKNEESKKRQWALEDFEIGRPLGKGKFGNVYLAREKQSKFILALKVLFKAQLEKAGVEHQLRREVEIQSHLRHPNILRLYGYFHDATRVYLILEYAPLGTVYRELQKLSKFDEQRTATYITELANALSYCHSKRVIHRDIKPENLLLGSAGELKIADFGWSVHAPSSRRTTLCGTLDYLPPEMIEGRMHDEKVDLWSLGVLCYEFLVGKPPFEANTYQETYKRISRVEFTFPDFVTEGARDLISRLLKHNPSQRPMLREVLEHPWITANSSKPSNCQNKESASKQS

[4] = target: Serine/threonine-protein kinase PLK3 (Homo sapiens, UniProt Q9H4B4); test: Inhibition of PLK3 (unknown origin)
Chain of Serine/threonine-protein kinase PLK3 (Q9H4B4 whole entry): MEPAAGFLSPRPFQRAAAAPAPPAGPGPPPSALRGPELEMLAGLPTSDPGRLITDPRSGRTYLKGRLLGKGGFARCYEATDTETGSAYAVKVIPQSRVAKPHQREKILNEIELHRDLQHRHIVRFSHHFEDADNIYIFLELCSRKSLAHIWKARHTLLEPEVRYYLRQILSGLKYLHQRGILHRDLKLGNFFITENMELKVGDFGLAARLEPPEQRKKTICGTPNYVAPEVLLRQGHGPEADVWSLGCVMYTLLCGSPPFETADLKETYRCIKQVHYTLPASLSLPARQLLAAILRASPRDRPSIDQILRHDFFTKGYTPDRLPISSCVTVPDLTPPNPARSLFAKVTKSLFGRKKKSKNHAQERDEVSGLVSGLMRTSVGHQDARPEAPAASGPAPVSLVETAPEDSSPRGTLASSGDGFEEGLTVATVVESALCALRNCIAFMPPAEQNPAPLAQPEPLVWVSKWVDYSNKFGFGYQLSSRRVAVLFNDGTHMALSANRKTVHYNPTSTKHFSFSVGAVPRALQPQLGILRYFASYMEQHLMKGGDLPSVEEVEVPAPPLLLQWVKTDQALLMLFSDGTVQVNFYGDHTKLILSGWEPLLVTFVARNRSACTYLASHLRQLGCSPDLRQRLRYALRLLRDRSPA

[5] = target: Aurora kinase B (Homo sapiens, UniProt Q96GD4); test: Inhibition of AURKB (unknown origin)
Chain of Aurora kinase B (Q96GD4 whole entry): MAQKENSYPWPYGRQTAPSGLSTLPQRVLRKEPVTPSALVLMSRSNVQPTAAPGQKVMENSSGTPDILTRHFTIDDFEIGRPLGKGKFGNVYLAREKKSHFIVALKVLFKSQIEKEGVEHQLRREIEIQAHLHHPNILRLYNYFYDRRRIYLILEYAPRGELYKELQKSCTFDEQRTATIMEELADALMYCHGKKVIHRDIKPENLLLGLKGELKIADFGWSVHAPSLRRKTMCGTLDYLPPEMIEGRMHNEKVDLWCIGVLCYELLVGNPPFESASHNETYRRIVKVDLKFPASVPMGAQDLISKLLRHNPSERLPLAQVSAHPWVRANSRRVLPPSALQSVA

[6] = target: RAF proto-oncogene serine/threonine-protein kinase (Homo sapiens, UniProt P04049); test: Inhibition of CRAF (unknown origin)
Chain of RAF proto-oncogene serine/threonine-protein kinase (P04049 whole entry): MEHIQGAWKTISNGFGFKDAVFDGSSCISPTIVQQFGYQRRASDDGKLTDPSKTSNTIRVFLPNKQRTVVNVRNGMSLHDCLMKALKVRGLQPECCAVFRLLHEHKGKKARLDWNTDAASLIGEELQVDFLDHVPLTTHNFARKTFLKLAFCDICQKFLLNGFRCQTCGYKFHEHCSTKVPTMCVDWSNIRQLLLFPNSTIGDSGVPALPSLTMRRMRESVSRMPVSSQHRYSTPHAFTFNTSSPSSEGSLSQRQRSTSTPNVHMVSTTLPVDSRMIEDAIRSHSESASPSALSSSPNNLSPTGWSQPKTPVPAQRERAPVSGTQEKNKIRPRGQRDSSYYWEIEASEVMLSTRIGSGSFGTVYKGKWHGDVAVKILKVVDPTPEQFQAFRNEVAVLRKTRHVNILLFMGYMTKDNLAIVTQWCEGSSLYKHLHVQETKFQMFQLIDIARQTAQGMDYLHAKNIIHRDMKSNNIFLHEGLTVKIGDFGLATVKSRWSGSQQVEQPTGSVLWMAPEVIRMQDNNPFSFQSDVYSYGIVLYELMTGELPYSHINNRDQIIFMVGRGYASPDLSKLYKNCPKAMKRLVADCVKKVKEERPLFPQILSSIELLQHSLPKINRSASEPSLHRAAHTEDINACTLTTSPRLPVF

[7] = target: Serine/threonine-protein kinase PLK1 (Homo sapiens, UniProt P53350); test: Inhibition of PLK1 (unknown origin)
Chain of Serine/threonine-protein kinase PLK1 (P53350 whole entry): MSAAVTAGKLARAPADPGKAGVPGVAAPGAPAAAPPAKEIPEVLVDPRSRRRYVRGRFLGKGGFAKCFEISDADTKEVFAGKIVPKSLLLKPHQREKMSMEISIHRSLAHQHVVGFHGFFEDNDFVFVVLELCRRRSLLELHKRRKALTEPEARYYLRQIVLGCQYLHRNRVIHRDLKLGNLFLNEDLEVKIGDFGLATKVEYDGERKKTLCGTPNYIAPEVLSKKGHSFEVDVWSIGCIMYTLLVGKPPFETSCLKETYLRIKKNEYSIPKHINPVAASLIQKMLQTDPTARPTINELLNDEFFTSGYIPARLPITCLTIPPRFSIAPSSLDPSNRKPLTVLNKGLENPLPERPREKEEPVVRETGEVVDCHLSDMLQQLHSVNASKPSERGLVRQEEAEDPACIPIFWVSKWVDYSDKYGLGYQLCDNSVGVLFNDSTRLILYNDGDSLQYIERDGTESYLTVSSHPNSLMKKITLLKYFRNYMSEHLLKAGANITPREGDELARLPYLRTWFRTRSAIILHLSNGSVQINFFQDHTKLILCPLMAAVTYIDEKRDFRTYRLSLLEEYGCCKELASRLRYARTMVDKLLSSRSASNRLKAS

Measured: IC50

Chain of Mitogen-activated protein kinase 3 (P27361 whole entry): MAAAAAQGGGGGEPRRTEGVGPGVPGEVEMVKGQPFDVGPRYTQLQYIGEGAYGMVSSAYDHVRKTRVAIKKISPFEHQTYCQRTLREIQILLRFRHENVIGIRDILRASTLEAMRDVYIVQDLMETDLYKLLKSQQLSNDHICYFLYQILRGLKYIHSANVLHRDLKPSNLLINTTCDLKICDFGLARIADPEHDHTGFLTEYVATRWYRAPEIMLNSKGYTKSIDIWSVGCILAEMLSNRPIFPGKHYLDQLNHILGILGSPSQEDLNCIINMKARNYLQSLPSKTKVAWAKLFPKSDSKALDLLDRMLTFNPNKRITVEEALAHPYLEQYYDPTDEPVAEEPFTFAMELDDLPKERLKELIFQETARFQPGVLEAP
Chain of RAC-alpha serine/threonine-protein kinase (P31749 whole entry): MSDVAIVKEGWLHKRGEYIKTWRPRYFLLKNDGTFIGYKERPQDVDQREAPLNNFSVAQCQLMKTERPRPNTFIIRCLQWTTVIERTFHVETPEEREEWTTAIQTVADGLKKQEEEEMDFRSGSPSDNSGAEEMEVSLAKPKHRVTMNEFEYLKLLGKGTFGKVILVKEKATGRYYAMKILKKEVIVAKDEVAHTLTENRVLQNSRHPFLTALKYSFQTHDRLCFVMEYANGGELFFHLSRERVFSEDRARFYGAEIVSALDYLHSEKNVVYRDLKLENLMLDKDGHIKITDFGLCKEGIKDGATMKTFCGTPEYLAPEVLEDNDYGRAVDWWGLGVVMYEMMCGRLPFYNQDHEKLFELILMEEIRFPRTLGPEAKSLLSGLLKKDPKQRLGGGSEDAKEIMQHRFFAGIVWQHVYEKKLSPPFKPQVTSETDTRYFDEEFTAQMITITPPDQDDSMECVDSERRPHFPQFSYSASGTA

CCN1CCN(Cc2ccc(Nc3ncc(F)c(-c4cc(F)c5nc(C)n(C(C)C)c5c4)n3)nc2)CC1 [Abemaciclib]
> 20 µM: [1] | [2] | [3] | [4] | [5] | [6] | [7]
